Measured values: paper PMC3214022, “Plasmodium falciparum Parasites Are Killed by a Transition State Analogue of Purine Nucleoside Phosphorylase in a Primate Animal Model” (PLoS ONE, 2011)
Where “and” joins values, the source holds several entries; their conditions need not be identical. Equal entries are not always repeated.

Assay: Weights, CBC and blood chemistry, Table S1 sheet PD-1 (efficacy study in P. falciparum-infected Aotus)
Type: in vivo, Aotus lemurinus lemurinus
Settings: IV 10 mg/kg once a day/3 days
Method: Laboratory bred Aotus lemurinus lemurinus monkeys (0.75–0.89 kg) were maintained as described. […] Blood samples were collected before the treatment started (t = 0), 0.05 h, 0.5 h, 1 h, 2 h, 6 h, 24 h, 48 h, and 6, 12 and 18 days after the first dose from each monkey and processed as described below. Pharmacokinetic parameters were calculated using PKSolver. For efficacy studies, Aotus monkeys were inoculated intravenously with 5×10^6 parasites of the FVO strain of P. falciparum in an approved treatment protocol. […] Parasitaemia was determined by Giemsa-stained thick blood smears prepared daily from the marginal ear vein [41]. Blood samples were collected from each monkey and transferred to tubes containing lithium heparin, centrifuged and both plasma and blood cells were frozen at −80 °C until analysis. Animals received a physical examination and blood chemistry profiles were monitored after treatment as described previously. Any monkey not responding appropriately to treatment was cured of its infection with mefloquine (40 mg kg^−1). […] The day of clearance is defined as the first of three consecutive days in which the thick blood films are parasite negative. The day of recrudescence is the first of three consecutive days of positive thick blood films after a period of clearance. Suppression is defined as a transient decrease in the parasite count post-treatment without clearance.

Nc1nc2c(CN3CC(O)C(CO)C3)c[nH]c2c(=O)[nH]1 (centres unmarked) [BCX4945, 4′-deaza-1′-aza-2′-deoxy-1′-(9-methylene)-Immucillin-G]
Blood Urea Nitrogen (day 9, 10 mg/kg): 10.65 mg/dL and 14.3 mg/dL and 10.85 mg/dL and 10.75 mg/dL and 11.6 mg/dL and 17.75 mg/dL | Creatinine (day 9, 10 mg/kg): 0.59 mg/dL and 0.587 mg/dL and 0.522 mg/dL and 0.609 mg/dL and 0.7 mg/dL and 0.665 mg/dL | Erythrocytes (day 9, 10 mg/kg): 4.53e+06 µL⁻¹ and 4.52e+06 µL⁻¹ and 3.97e+06 µL⁻¹ and 3.87e+06 µL⁻¹ and 3.32e+06 µL⁻¹ and 5.16e+06 µL⁻¹ | Granulocytes (%) (day 9, 10 mg/kg): 19.7% and 21.4% and 19.2% and 30% and 21.1% and 36.1% | Hematocrit (day 9, 10 mg/kg): 36.1% and 34.4% and 30.6% and 31.6% and 28.1% and 40.4% | Hemoglobin (day 9, 10 mg/kg): 12 g/dL and 11.8 g/dL and 10.3 g/dL and 10.5 g/dL and 9.3 g/dL and 13.8 g/dL | Leucocytes (day 9, 10 mg/kg): 16700 µL⁻¹ and 22100 µL⁻¹ and 19500 µL⁻¹ and 11100 µL⁻¹ and 19200 µL⁻¹ and 19700 µL⁻¹ | Lymphocytes (%) (day 9, 10 mg/kg): 65.5% and 44.6% and 64.7% and 56.2% and 66.9% and 50.4% | Mean Corpuscular Hemoglobin (day 9, 10 mg/kg): 26.5 pg and 26.1 pg and 25.9 pg and 27.1 pg and 28.1 pg and 26.7 pg | Mean Corpuscular Volume (day 9, 10 mg/kg): 79.7 fL and 76.1 fL and 77.1 fL and 81.8 fL and 84.7 fL and 78.2 fL | Mean Hemoglobin Content (day 9, 10 mg/kg): 33.3 g/dL and 34.4 g/dL and 33.6 g/dL and 33.2 g/dL and 33.1 g/dL and 34.1 g/dL | Mean Platelet Volume (day 9, 10 mg/kg): 11.9 fL and 15.2 fL and 12.6 fL and 13.1 fL and 13.2 fL and 13.5 fL | Platelets (day 9, 10 mg/kg): 321000 µL⁻¹ and 270000 µL⁻¹ and 322000 µL⁻¹ and 237000 µL⁻¹ and 267000 µL⁻¹ and 336000 µL⁻¹ | Red Cell Distribution Width (day 9, 10 mg/kg): 12.8% and 11.8% and 11.5% and 13.6% and 12.1% | Reticulocytes (day 9, 10 mg/kg): 1.7% and 1.2% and 2.3% and 1.8% and 1.3% and 1.9% | WEIGHT (day 9, 10 mg/kg): 780 g and 698 g and 888 g and 790 g and 930 g and 685 g | Creatinine (day 12, 10 mg/kg): 0.555 mg/dL and 0.539 mg/dL and <0.500 mg/dL and 0.508 mg/dL and 0.604 mg/dL and 0.605 mg/dL | Erythrocytes (day 12, 10 mg/kg): 4.01e+06 µL⁻¹ and 4.03e+06 µL⁻¹ and 3.46e+06 µL⁻¹ and 5.43e+06 µL⁻¹ and 2.96e+06 µL⁻¹ and 4.66e+06 µL⁻¹ | Glutamate Pyruvate Transaminase (day 12, 10 mg/kg): 41.8 U/L and 40.8 U/L and 52.6 U/L and 38.7 U/L and 64.9 U/L and 39.6 U/L | Hematocrit (day 12, 10 mg/kg): 31.6% and 31.2% and 27.1% and 43.9% and 26.3% and 36.3% | Hemoglobin (day 12, 10 mg/kg): 10.9 g/dL and 10.7 g/dL and 9.2 g/dL and 14.9 g/dL and 8.6 g/dL and 12.7 g/dL | Leucocytes (day 12, 10 mg/kg): 36300 µL⁻¹ and 31000 µL⁻¹ and 41200 µL⁻¹ and 29300 µL⁻¹ and 42600 µL⁻¹ and 45600 µL⁻¹ | Lymphocytes (%) (day 12, 10 mg/kg): 72.6% and 57.1% and 73% and 56% and 73.9% and 60.8% | Lymphocytes (x 103/ul) (day 12, 10 mg/kg): 26.4 x 103/ul and 17.7 x 103/ul and 30.1 x 103/ul and 16.4 x 103/ul and 31.5 x 103/ul and 27.7 x 103/ul | Mean Corpuscular Hemoglobin (day 12, 10 mg/kg): 27.2 pg and 26.5 pg and 27.5 pg and 29 pg and 27.4 pg | Mean Corpuscular Volume (day 12, 10 mg/kg): 78.8 fL and 77.3 fL and 78.4 fL and 80.9 fL and 88.8 fL and 78 fL | Mean Hemoglobin Content (day 12, 10 mg/kg): 34.5 g/dL and 34.3 g/dL and 33.8 g/dL and 34.1 g/dL and 32.7 g/dL and 35.1 g/dL | Mean Platelet Volume (day 12, 10 mg/kg): 17.3 fL and 13.7 fL and 12.9 fL and 18.2 fL and 11.1 fL | Monocytes (x 103/ul) (day 12, 10 mg/kg): 3.5 x 103/ul and 4.3 x 103/ul and 6 x 103/ul and 4.1 x 103/ul | Red Cell Distribution Width (day 12, 10 mg/kg): 13.5% and 12.4% and 12.7% and 11.4% and 14.8% and 12.2% | Reticulocytes (day 12, 10 mg/kg): 1.7% and 2.1% and 2.5% and 2.6% and 1.3% | WEIGHT (day 12, 10 mg/kg): 766 g and 680 g and 832 g and 849 g and 684 g | Blood Urea Nitrogen (day 19, 10 mg/kg): 19.25 mg/dL and <10.0 mg/dL and 15.3 mg/dL and 13.8 mg/dL and 15.4 mg/dL and 13.5 mg/dL | Creatinine (day 19, 10 mg/kg): 0.514 mg/dL and <0.500 mg/dL and 0.504 mg/dL and 0.562 mg/dL and 0.507 mg/dL | Erythrocytes (day 19, 10 mg/kg): 4.88e+06 µL⁻¹ and 4.44e+06 µL⁻¹ and 4.27e+06 µL⁻¹ and 4e+06 µL⁻¹ and 4.12e+06 µL⁻¹ and 5.22e+06 µL⁻¹ | Glutamate Pyruvate Transaminase (day 19, 10 mg/kg): 29 U/L and 20.1 U/L and 31.3 U/L and 23.9 U/L and 26.3 U/L and 21.8 U/L | Hemoglobin (day 19, 10 mg/kg): 14.2 g/dL and 11.9 g/dL and 11.8 g/dL and 12.5 g/dL | Leucocytes (day 19, 10 mg/kg): 30100 µL⁻¹ and 23700 µL⁻¹ and 16700 µL⁻¹ and 22900 µL⁻¹ and 19600 µL⁻¹ and 17100 µL⁻¹ | Lymphocytes (%) (day 19, 10 mg/kg): 87.7% and 48.9% and 76.9% and 73.7% and 77.1% and 48.7% | Mean Corpuscular Hemoglobin (day 19, 10 mg/kg): 29 pg and 26.8 pg and 27.5 pg and 29.7 pg and 30.3 pg and 27.1 pg | Mean Corpuscular Volume (day 19, 10 mg/kg): 87.8 fL and 79.1 fL and 84.9 fL and 91.2 fL and 93.4 fL and 81.3 fL | Mean Hemoglobin Content (day 19, 10 mg/kg): 33.1 g/dL and 33.9 g/dL and 32.4 g/dL and 32.6 g/dL and 32.5 g/dL and 33.4 g/dL | Mean Platelet Volume (day 19, 10 mg/kg): 15.6 fL and 12.8 fL and 12.3 fL and 14.4 fL and 14.8 fL and 13.8 fL | Monocytes (%) (day 19, 10 mg/kg): 5.6% and 6.4% and 11.4% and 6.6% | Red Cell Distribution Width (day 19, 10 mg/kg): 23.9% and 15.2% and 21.7% and 23.4% and 22.5% and 17.2% | Reticulocytes (day 19, 10 mg/kg): 1.5% and 2% and 2.3% and 2.2% | WEIGHT (day 19, 10 mg/kg): 777 g and 684 g and 852 g and 754 g and 875 g and 690 g | Blood Urea Nitrogen (day 25, 10 mg/kg): 27.95 mg/dL and 24.85 mg/dL and 23.3 mg/dL and 19.35 mg/dL and 20.25 mg/dL | Creatinine (day 25, 10 mg/kg): <0.500 mg/dL and 0.563 mg/dL and 0.659 mg/dL and 0.585 mg/dL | Erythrocytes (day 25, 10 mg/kg): 4.42e+06 µL⁻¹ and 5.34e+06 µL⁻¹ and 5.57e+06 µL⁻¹ and 4.57e+06 µL⁻¹ and 4.75e+06 µL⁻¹ | Glutamate Pyruvate Transaminase (day 25, 10 mg/kg): 21.7 U/L and 23.8 U/L and 25 U/L and 26.2 U/L | Hematocrit (day 25, 10 mg/kg): 35.7% and 44.6% and 40.2% and 42.6% | Hemoglobin (day 25, 10 mg/kg): 12.1 g/dL and 15.2 g/dL and 15.3 g/dL and 13.4 g/dL and 14.4 g/dL | Leucocytes (day 25, 10 mg/kg): 11500 µL⁻¹ and 12400 µL⁻¹ and 15400 µL⁻¹ and 12700 µL⁻¹ and 10500 µL⁻¹ | Lymphocytes (%) (day 25, 10 mg/kg): 72.6% and 81.9% and 63.9% and 71.1% and 64.3% | Lymphocytes (x 103/ul) (day 25, 10 mg/kg): 8.3 x 103/ul and 10.2 x 103/ul and 9.8 x 103/ul and 9 x 103/ul and 6.8 x 103/ul | Mean Corpuscular Hemoglobin (day 25, 10 mg/kg): 27.3 pg and 28.5 pg and 27.5 pg and 29.3 pg and 30.2 pg | Mean Corpuscular Volume (day 25, 10 mg/kg): 80.8 fL and 83.6 fL and 80.1 fL and 88.1 fL and 89.5 fL | Mean Hemoglobin Content (day 25, 10 mg/kg): 33.8 g/dL and 34.1 g/dL and 34.3 g/dL and 33.2 g/dL and 33.7 g/dL | Mean Platelet Volume (day 25, 10 mg/kg): 12 fL and 13 fL and 11 fL | Monocytes (%) (day 25, 10 mg/kg): 11.3% and 6.2% and 5.7% and 7.9% and 8.2% | Monocytes (x 103/ul) (day 25, 10 mg/kg): 1.3 x 103/ul and 0.8 x 103/ul and 0.9 x 103/ul and 1 x 103/ul | Platelets (day 25, 10 mg/kg): 342000 µL⁻¹ and 291000 µL⁻¹ and 454000 µL⁻¹ and 397000 µL⁻¹ and 336000 µL⁻¹ | Red Cell Distribution Width (day 25, 10 mg/kg): 16.7% and 18.3% and 15.7% and 19.1% and 17.5% | Reticulocytes (day 25, 10 mg/kg): 2.1% and 1.8% and 1.7% and 2.6% and 2.4% | WEIGHT (day 25, 10 mg/kg): 825 g and 760 g and 690 g and 687 g | Blood Urea Nitrogen (day 26): 16.65 mg/dL | Creatinine (day 26): 0.537 mg/dL | Erythrocytes (day 26): 4.54e+06 µL⁻¹ | Glutamate Pyruvate Transaminase (day 26): 18.2 U/L | Granulocytes (%) (day 26): 46.7% | Granulocytes (x 103/ul) (day 26): 7.7 x 103/ul | Hematocrit (day 26): 35.9% | Hemoglobin (day 26): 12 g/dL | Leucocytes (day 26): 16500 µL⁻¹ | Lymphocytes (%) (day 26): 45.8% | Lymphocytes (x 103/ul) (day 26): 7.6 x 103/ul | Mean Corpuscular Hemoglobin (day 26): 26.3 pg | Mean Corpuscular Volume (day 26): 78.9 fL | Mean Hemoglobin Content (day 26): 33.4 g/dL | Mean Platelet Volume (day 26): 12.5 fL | Monocytes (%) (day 26): 7.5% | Monocytes (x 103/ul) (day 26): 1.2 x 103/ul | Platelets (day 26): 314000 µL⁻¹ | Red Cell Distribution Width (day 26): 16.2% | Reticulocytes (day 26): 1.9% | WEIGHT (day 26): 910 g | Creatinine (day -2, 10 mg/kg): 0.623 mg/dL and 0.539 mg/dL and 0.583 mg/dL and 0.677 mg/dL and 0.579 mg/dL and 0.564 mg/dL | Erythrocytes (day -2, 10 mg/kg): 6.51e+06 µL⁻¹ and 6.11e+06 µL⁻¹ and 6.26e+06 µL⁻¹ and 5.03e+06 µL⁻¹ and 5.52e+06 µL⁻¹ and 5.2e+06 µL⁻¹ | Hematocrit (day -2, 10 mg/kg): 50% and 47.6% and 40.6% and 44.3% and 42.4% | Hemoglobin (day -2, 10 mg/kg): 17.2 g/dL and 16.6 g/dL and 16.4 g/dL and 14.2 g/dL and 15.2 g/dL | Leucocytes (day -2, 10 mg/kg): 18500 µL⁻¹ and 15700 µL⁻¹ and 15900 µL⁻¹ and 16400 µL⁻¹ and 10600 µL⁻¹ and 21000 µL⁻¹ | Mean Corpuscular Hemoglobin (day -2, 10 mg/kg): 26.4 pg and 27.2 pg and 26.3 pg and 28.2 pg and 27.5 pg and 33.1 pg | Mean Corpuscular Volume (day -2, 10 mg/kg): 76.8 fL and 78 fL and 76.1 fL and 80.7 fL and 80.2 fL and 81.5 fL | Mean Hemoglobin Content (day -2, 10 mg/kg): 34.4 g/dL and 34.9 g/dL and 34.5 g/dL and 34.3 g/dL and 40.6 g/dL
